Measured values reported in patent US9663515B2, “Dihydropyrrolopyridine inhibitors of ROR-gamma” (Vitae Pharmaceuticals, Inc., priority 2014, dated 2017).

Columns and labels:
[1] = target: hERG potassium ion channel (Homo sapiens (Human), UniProt Q12809); assay: hERG Assay (Assay 4); format: cell-based; conditions: HEK293 cells stably transfected with hERG cDNA, pH 7.4, compound at 3 μM, patch clamp, HEK 293 cells transfected with hERG
Description: Compounds of the invention were tested in vitro against the hERG (human ether-à-go-go-related gene) potassium ion channel (a surrogate for IKr, the rapidly activating delayed rectifier cardiac potassium ion channel).
The buffer was HEPES-buffered physiological saline (HB-PS) solution composed of: 137 mM NaCl, 4.0 mM KCl, 1.8 mM CaCl2, 1 mM MgCl2, 10 mM HEPES, 10 mM glucose, pH adjusted to 7.4 with NaOH, and 0.3% DMSO. Chemicals used in solution preparation were purchased from Sigma-Aldrich (St. Louis, Mo.), unless otherwise noted, and were of ACS reagent grade purity or higher.
HEK (human embryonic kidney) 293 cells were stably transfected with hERG cDNA.
For the patch clamp experiment, onset and steady state inhibition of hERG potassium current was measured using a pulse pattern with fixed amplitudes (depolarization: +20 mV for 2 s; repolarization: −50 mV for 2 s) repeated at 10 s intervals from a holding potential of −80 mV. Peak tail current was measured during the 2 s step to −50 mV. A steady state was maintained for at least 30 seconds before applying compound or positive control (cisapride). Peak tail currents were measured until a new steady state was achieved.
Data acquisition and analyses were performed using the suite of pCLAMP® (ver. 8.2) programs (MDS Analytical Technologies, Sunnyvale, Calif.). Steady state was defined by the limiting constant rate of change with time (linear time dependence). The steady state before and after each compound application was used to calculate the percentage of current inhibited at each concentration.
Concentration-response data were fit to an equation of the following form: % Inhibition={1−1/[1+([Test]/IC50)N]}*100
where [Test] was the compound concentration, IC50 was the compound concentration at half-maximal inhibition, N was the Hill coefficient, and % Inhibition was the percentage of current inhibited at each compound concentration. Nonlinear least squares fits were solved with the Solver add-in for Excel 2003 (Microsoft, WA) and the IC50 was calculated.

[2] = target: recombinant RORγ Ligand Binding Domain (LBD) protein (Homo sapiens (Human), UniProt P51449); assay: Radio-Ligand RORγ Binding Assay (Assay 1); conditions: competition with 25-hydroxy [26,27-3H]-cholesterol, SPA; read-out: RORγ Binding Ki Range (nM) (Assay 1)
Description: Radio-Ligand RORγ Binding Assay (Assay 1)
Compounds of the present invention were tested for ability to bind to RORγ in a cell-free competition assay with commercially available radio-ligand (RL), 25-hydroxy [26,27-^3H]-cholesterol (PerkinElmer, Cat. # NET674250UC), for a ligand binding site on a recombinant RORγ Ligand Binding Domain (LBD) protein expressed as a 6×His-Glutathione-S-Transferase (GST) fusion. […] The plate was shaken at 700 rpm for 20 min and incubated for 10 min at rt, after which 40 μL of poly-Lys YSi SPA beads (PerkinElmer, Cat. # RPNQ0010) were added to achieve 50 μg of the beads per well. The plate was incubated on an orbital shaker for 20 min and then for 10 min without agitation at rt. SPA signal for tritium beta radiation was registered on PerkinElmer Microbeta plate reader. […] The percent inhibition vs. concentration data were fit into a four-parameter model, and IC50 values were calculated from the fit as the concentrations corresponding to the inflection points on the dose-response curves.

[3] = target: full-length RORγt in Jurkat cells (Homo sapiens (Human), UniProt P51449); assay: RORγt 5×RORE Assay in Jurkat Cells (Assay 2); format: cell-based; conditions: 5×RORE Nanoluc luciferase reporter, read-out: RORγt5X IC50 Range (nM) (Assay 2)
Description: [formula] RORγt 5×RORE Assay in Jurkat Cells (Assay 2)
Compounds of the present invention were tested for RORγ inverse agonist activity in a cell-based, transcriptional activity assay. […] (Promega, Cat. # N1021) using KpnI and HindIII restriction sites. […] Tested compounds were added to the cells in the same media (final concentration of DMSO was 0.1% (v/v)), and the plates were incubated at 37° C./5% CO2 for 16-18 hr. Luciferase activity in the conditioned supernatants was determined with NanoGlo® assay reagents (Promega, Cat.# N1130).

[4] = tested on: IL-17A production in human whole blood; assay: Human Whole Blood Assay (Assay 3); format: cell-based; conditions: IL-17A secretion, CytoStim activation, 48 h, 50% blood/media
Description: Human Whole Blood Assay (Assay 3)
Compounds of the invention were tested in the human whole blood assay to measure their effects on IL-17A production as determined by cytokine secretion into 50% blood/media supernatant. Mixtures of sodium heparinized whole blood (isolated from healthy human donors) and the T cell activator CytoStim, in the presence or absence of compound, were plated in sterilized, tissue culture-treated 24-well plates. […]
Mixtures were incubated at 37° C./5% CO2 for 48 h, after which, 200 μL of clean supernatant (i.e., no red blood cells) from each well was transferred to a well in a 96-well plate. IL-17A cytokine expression was determined using 25 μL of the transferred supernatant diluted with 25 μL of Diluent 43 from the Human IL-17A V-PLEX™ kit (cat. # K151RFD-4, Meso Scale Discovery, Rockville, Md.). […] The IL-17A V-PLEX™ plates were read using the Meso Scale Discovery Imager (Model 1200). The levels of IL-17A were extrapolated from a standard curve using a four-parameter non-linear fitting model and expressed as pg/mL. […]

Chain of full-length RORγt in Jurkat cells (P51449 other isoform, or with tags, fused parts or gaps): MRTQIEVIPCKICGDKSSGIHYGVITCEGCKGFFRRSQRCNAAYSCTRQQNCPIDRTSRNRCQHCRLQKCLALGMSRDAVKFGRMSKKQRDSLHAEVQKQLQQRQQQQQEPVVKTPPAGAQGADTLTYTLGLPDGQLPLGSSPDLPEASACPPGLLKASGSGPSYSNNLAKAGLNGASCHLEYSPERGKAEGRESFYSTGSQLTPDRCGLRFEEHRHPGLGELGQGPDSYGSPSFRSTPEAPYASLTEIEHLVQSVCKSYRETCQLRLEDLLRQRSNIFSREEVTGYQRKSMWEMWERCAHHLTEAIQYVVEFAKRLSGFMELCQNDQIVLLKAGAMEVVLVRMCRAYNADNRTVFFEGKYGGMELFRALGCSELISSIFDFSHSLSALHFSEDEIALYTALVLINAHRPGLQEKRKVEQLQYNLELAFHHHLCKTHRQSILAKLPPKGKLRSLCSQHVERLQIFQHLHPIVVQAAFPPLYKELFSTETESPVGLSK
Chain of recombinant RORγ Ligand Binding Domain (LBD) protein (P51449 269-508): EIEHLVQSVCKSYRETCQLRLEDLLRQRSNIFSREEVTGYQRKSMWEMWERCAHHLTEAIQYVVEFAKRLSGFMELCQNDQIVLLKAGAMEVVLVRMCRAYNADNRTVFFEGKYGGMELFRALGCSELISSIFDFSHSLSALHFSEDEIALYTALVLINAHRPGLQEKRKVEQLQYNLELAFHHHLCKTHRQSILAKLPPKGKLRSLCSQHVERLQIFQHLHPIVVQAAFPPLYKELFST
Chain of hERG potassium ion channel (Q12809 whole entry): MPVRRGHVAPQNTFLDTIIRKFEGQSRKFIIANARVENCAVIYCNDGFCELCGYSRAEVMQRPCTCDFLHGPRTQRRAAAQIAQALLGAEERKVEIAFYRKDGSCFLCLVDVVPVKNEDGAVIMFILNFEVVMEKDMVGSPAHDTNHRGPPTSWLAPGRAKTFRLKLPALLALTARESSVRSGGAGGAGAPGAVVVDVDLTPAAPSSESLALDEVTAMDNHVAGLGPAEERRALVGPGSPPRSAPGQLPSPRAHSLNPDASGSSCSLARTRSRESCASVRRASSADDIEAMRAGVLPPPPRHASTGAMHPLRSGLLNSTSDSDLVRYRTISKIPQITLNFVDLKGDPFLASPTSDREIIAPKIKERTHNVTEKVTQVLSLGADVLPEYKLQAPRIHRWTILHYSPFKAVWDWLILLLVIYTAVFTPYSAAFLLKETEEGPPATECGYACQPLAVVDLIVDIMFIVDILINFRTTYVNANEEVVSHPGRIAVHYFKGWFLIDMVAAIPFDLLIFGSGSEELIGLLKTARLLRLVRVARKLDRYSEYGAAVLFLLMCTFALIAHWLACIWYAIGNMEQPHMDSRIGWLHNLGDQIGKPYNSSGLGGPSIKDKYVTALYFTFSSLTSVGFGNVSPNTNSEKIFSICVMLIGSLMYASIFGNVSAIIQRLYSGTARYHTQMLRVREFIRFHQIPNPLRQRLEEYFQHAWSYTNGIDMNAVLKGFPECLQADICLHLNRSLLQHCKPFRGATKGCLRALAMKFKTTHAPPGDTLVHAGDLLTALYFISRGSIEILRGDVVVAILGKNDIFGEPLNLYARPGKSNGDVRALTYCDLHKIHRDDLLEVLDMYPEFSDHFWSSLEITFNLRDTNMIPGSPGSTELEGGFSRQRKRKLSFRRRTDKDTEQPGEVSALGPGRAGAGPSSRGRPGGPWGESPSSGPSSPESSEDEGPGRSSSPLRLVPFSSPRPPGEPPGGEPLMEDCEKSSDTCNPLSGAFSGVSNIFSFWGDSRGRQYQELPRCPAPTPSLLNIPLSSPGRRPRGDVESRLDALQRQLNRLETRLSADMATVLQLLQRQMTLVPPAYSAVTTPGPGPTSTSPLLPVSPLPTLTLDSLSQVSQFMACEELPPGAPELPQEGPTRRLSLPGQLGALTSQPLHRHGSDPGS

| Structure (SMILES) | Ki [2] [nM] | IC50 [3] [nM] | inhibition at 3 µM [1] [%] | IC50 [4] [nM] |
| --- | --- | --- | --- | --- |
| CCS(=O)(=O)c1ccc(CNC(=O)c2cnc3c(c2)CN(C[C@H]2CC[C@H](C(F)(F)F)CC2)[C@H]3C(C)C)cc1 |  |  | 57 |  |
| CCS(=O)(=O)c1ccc(CNC(=O)c2cnc3c(c2)CN(C[C@H]2CC[C@H](C(F)(F)F)CC2)[C@H]3C(C)C)nc1 |  |  | 45.4 |  |
| CC[C@H]1c2ncc(C(=O)N[C@@H](COC)c3ccc(S(=O)(=O)CC)cc3)cc2CN1C[C@H]1CC[C@H](C(F)(F)F)OC1 (single isomer, unassigned) [Compound 3] | < 100 | < 100 | 24.3 |  |
| CC[C@H]1c2ncc(C(=O)N[C@@H](COC)c3ccc(S(=O)(=O)CC)cc3)cc2CN1C[C@@H]1CC[C@@H](C(F)(F)F)OC1 (single isomer, unassigned) [Compound 4] | < 100 | < 100 |  |  |
| CC[C@H]1c2ncc(C(=O)N[C@@H](COC)c3ccc(S(=O)(=O)CC)cc3)cc2CN1C[C@@H]1CC[C@H](C(F)(F)F)OC1 (single isomer, unassigned) [Compound 5] | < 100 | > 1000 |  |  |
| CC[C@H]1c2ncc(C(=O)N[C@@H](COC)c3ccc(S(=O)(=O)CC)cc3)cc2CN1C[C@H]1CC[C@H](C(F)(F)F)CC1 [Compound 1, (S)-7-ethyl-N—((R)-1-(4-(ethylsulfonyl)phenyl)-2-methoxyethyl)-6-((trans-4-(trifluoromethyl)cyclohexyl)methyl)-6,7-dihydro-5H-pyrrolo[3,4-b]pyridine-3-carboxamide] | < 100 | < 100 | 24.3 | < 100 |
| CC[C@H]1c2ncc(C(=O)N[C@@H](COC(N)=O)c3ccc(S(=O)(=O)CC)cc3)cc2CN1C[C@H]1CC[C@H](C(F)(F)F)CC1 [Compound 2, (R)-2-((S)-7-ethyl-6-((trans-4-(trifluoromethyl)cyclohexyl)methyl)-6,7-dihydro-5H-pyrrolo[3,4-b]pyridine-3-carboxamido)-2-(4-(ethylsulfonyl)phenyl)ethyl carbamate] | […] | […] | 38.8 | […] |

More lines, main results first:

| Ki [2] [nM] | IC50 [3] [nM] | Structure (SMILES) | inhibition at 3 µM [1] [%] | IC50 [4] [nM] |
| --- | --- | --- | --- | --- |
| < 100 | > 1000 | CC[C@H]1c2ncc(C(=O)N[C@@H](COC)c3ccc(S(=O)(=O)CC)cc3)cc2CN1C[C@H]1CC[C@@H](C(F)(F)F)OC1 (single isomer, unassigned) [Compound 6] |  |  |
| < 100 | > 1000 | CCS(=O)(=O)c1ccc([C@H](COC)NC(=O)c2cnc3c(c2)CN(C[C@H]2CC[C@@H](C(F)(F)F)CC2)[C@H]3C(C)C)cc1 [Compound 8] |  |  |
| < 100 | > 1000 | CCS(=O)(=O)c1ccc([C@@H](COC(N)=O)NC(=O)c2cnc3c(c2)CN(C[C@H]2CC[C@@H](C(F)(F)F)CC2)[C@H]3C(C)C)nc1 [Compound 9] |  |  |
| < 100 | < 100 | CCS(=O)(=O)c1ccc([C@H](COC(N)=O)NC(=O)c2cnc3c(c2)CN(C[C@H]2CC[C@H](C(F)(F)F)CC2)[C@H]3C(C)C)nc1 [Compound 10] |  |  |
| < 100 | > 1000 | CCS(=O)(=O)c1ccc([C@H](COC(N)=O)NC(=O)c2cnc3c(c2)CN(C[C@H]2CC[C@@H](C(F)(F)F)CC2)[C@H]3C(C)C)cc1 [Compound 11] |  |  |
| < 100 | < 100 | CCS(=O)(=O)c1ccc([C@@H](COC(N)=O)NC(=O)c2cnc3c(c2)CN(C[C@H]2CC[C@H](C(F)(F)F)CC2)[C@H]3C(C)C)cc1 [Compound 12] | 38.8 |  |
| < 100 | 100 to 1000 | CCS(=O)(=O)c1ccc([C@H](COCC(=O)O)NC(=O)c2cnc3c(c2)CN(C[C@H]2CC[C@H](C(F)(F)F)CC2)[C@H]3C(C)C)cc1 [Compound 14] |  |  |
| < 100 | < 100 | CCS(=O)(=O)c1ccc([C@H](COC)NC(=O)c2cnc3c(c2)CN(C[C@H]2CC[C@H](C(F)(F)F)CC2)[C@H]3C(C)C)cc1 [Compound 15] | 50 |  |
